These results are taken from patent publication US10653670B2, “Use of indole compounds for fat reduction and skin and soft tissue tightening” (Alevere Medical Corporation, priority 2013, dated 2020).

Data set [1] has as its system adipocytes over nerve cells, dermal cells, muscle cells, and endothelial cells. The data set is described as follows: LIVE/DEAD assay, tissue preference (adipocytes versus other cell types). Format: cell-based, human. The note with it: Example 2, FIGS. 5-8 and table; 2 and 5 hours in FIGS. 6-8.
Data set [2] relates to adipocytes. The data set is described as follows: Histology of injected immediate ex-vivo abdominoplasty tissue. The class given is cell-based, human. As to the method: As the indole group has not been previously used for intralesional fat reduction, a method of obtaining histologic specimens had to be modified.
The tissue model described herein, therefore, was immediate ex-vivo abdominoplasty tissue that had been permitted for use by the surgical patient. Segments of abdominal skin and subcutaneous fat were injected with identified test compounds, plus a negative saline control and three positive controls: 1% deoxycholate, the commercial preparation of Aqualyx®, and the Network Lipolysis PC/DC formula.
Because there was no host; inflammatory changes would not be expected. This study was only performed to assess the immediacy of adipocyte changes, and to determine the method of action of each compound.

Data set [3] has as its system fat pad (human fat graft). The data set can be described thus: Nude mouse study, injection into engrafted human fat pad. Format: in vivo. How it is done:
This example reports exemplary compounds reported in Example 1. A mouse study was performed to test compounds of the embodiments. Eight test compounds were injected. In addition to normal saline and compound diluent (DMSO plus excipients) (negative controls), positive controls included 1% sodium deoxycholate (DC, MasterPharm, Richmond Hill, N.Y.), phosphatidylcholine 25 mg/ml plus deoxycholate 12 mg/ml (PC/DC, PC25/DC 12, MasterPharm, Richmond Hill, N.Y.), and Aqualyx®, a sodium deoxycholate in a lactose carrier (Marllor International, Italy).
Seventy nude mice were chosen for a study of safety and efficacy of injectable lipolytic compounds. Human fat was harvested one hour prior to the injection procedure. 0.5 cc of fat was loaded into micro syringes. Engraftment took place under general anesthesia. Four weeks later, the fat pad size was measured and compounds injected precisely using a 6 mm meso needle in the center and 0.5 cm cephalad and caudad to the midpoint. Mice were sacrificed at one day, one week, two weeks and 4 weeks. […]
Each fat pad was measured and weighed on the analytical balance at the time of sacrifice. […]
Size reduction after compound injection was measured against the measurement taken just previous to injection of compounds. […] Compound dose was calculated based on the average weight of each mouse and was based on the maximum safe dose of PC/DC. […]

For data set [4] the following is noted: recent reports following clinical trials; cited from earlier work.
Data set [5] concerns adipocytes. The data set can be described thus: LIVE/DEAD calcein/ethidium bromide assay, adipocyte kill rate. Format: cell-based, human. The note with it: for adipocyte kill rate / aggressiveness: Example 2, FIGS. 5-8 and table; for Adipocyte, averaged ethidium numbers: kill rate (ethidium), all tissue types on the same plate. As to the method:
(§1) The time and concentration dependent effects of drug substance on both cell viability and toxicity were evaluated using a two-color fluorescence assay that measures plasma membrane integrity and intracellular enzyme activity. Live cells are determined by the strong fluorescence of calcein AM upon enzymatic conversion. […] The ratio of ethidium to calcein fluorescence is an excellent measure of the relative amount of live and dead cells.
(§2) Initial screening was performed using a variety of cell viability and cytotoxicity assays, including Presto Blue® (Invitrogen, Grand Island, N.Y.), Alamar Blue® (Invitrogen, Grand Island, N.Y.), Cyto-Tox One® (Promega, Madison, Wis.), and Cell Titer Glo® (Promega, Madison, Wis.). […] An MTT terazolium assay was performed, as well as LDH and ATP based assays. […] The LIVE/DEAD® for mammalian cells assay was used. LIVE/DEAD® for mammalian cells assay is a calcein (live read)/ethidium bromide (dead) multiplex assay.
(§3) A sample of DMSO/PBS was a negative control. A sample of Aqualyx® was a positive control. In the table, 24M is phosphatidylcholine 25 mg/ml plus deoxycholate 12 mg/and 25N is C 50/DC24; these were positive controls. The numbers in the table refer to averaged ethidium numbers. The percentages represent the relative kill rate for each cell type when rated against the adipocyte kill rate for that compound. All tissue types were tested on the same plate against adipocytes in order to standardize results.
(§4) Over seventy compounds of the embodiments were tested for adipocytolysis, then for tissue preference. A consistent assay with multiplex information was a calcein/ethidium bromide assay that assesses cell viability and cell death simultaneously. Cell viability was checked using the Countess device. All plates were inoculated with 100 microliters of the appropriate cell types. A 6 well repeat was used to verify results. Cell types used included cultured human adult derived adipocytes, dermal fibroblasts, skeletal muscle cells, and endothelial cells (Cell Applications, Inc., San Diego, Calif.). Human peripheral nerve cells (Innoprot, Spain) were also used.
(§5) Compounds were formulated using a DMSO/PBS excipient. A 10 mg/ml concentration was used. One hundred microliters of test compound was inserted into 6 wells of 5 cell types, placed in adjacent rows. The plates were incubated for 4 hours. Indicator was added to each well, and plates were read at 45 minutes using a fluorescence spectrophotometer (Molecular Devices, Sunnyvale, Calif.).

Data set [6] deals with dermal fibroblasts. Format: cell-based. The note with it: for Dermis, averaged ethidium numbers: kill rate (ethidium), same plate as adipocytes; for Dermis, relative kill rate rated against the adipocyte kill rate: percentage in brackets. How it is done: as §1, §2, §3, §4, §5
The test system of data set [7] is nerve cells. The class given is cell-based. As to conditions: for Nerve, averaged ethidium numbers: kill rate (ethidium), same plate as adipocytes; for Nerve, relative kill rate rated against the adipocyte kill rate: percentage in brackets. As to the method:
as §1, §2, §3, §4, §5

For data set [8], the system named is skeletal muscle cells. The data set can be described thus: LIVE/DEAD calcein/ethidium bromide assay, muscle cell kill rate. The class given is cell-based, human. As to conditions: for Muscle, averaged ethidium numbers: kill rate (ethidium), same plate as adipocytes; for Muscle, relative kill rate rated against the adipocyte kill rate: percentage in brackets. As to the method:
as §1, §2, §3, §4, §5

Data set [9] has as its system endothelial cells. The data set can be described thus: LIVE/DEAD calcein/ethidium bromide assay, endothelial cell kill rate. The note with it: for Endothelial, averaged ethidium numbers: kill rate (ethidium), same plate as adipocytes; for Endothelial, relative kill rate rated against the adipocyte kill rate: percentage in brackets. Format: cell-based, human. How it is done:
as §1, §2, §3, §4, §5

“Also recorded” adds a separate entry of the source.

For the molecule `C[C@H](CCC(=O)[O-])[C@H]1CC[C@H]2[C@@H]3CC[C@@H]4C[C@H](O)CC[C@]4(C)[C@H]3C[C@H](O)[C@]12C.[Na+]` [1% deoxycholate, sodium deoxycholate], the “tissue specificity / tissue preference” value in data set [1] is “indiscriminate”. Moreover, the “histology finding / mechanism of action” value in data set [2] (at 4 hours) is listed as “Cell wall lysis”. The “gross effect on fat pad graft” value in data set [3] (four weeks after injection) was “Visible and measurable fat reduction”; in [3] (one day after injection) it was “Immediate necrosis”. In addition, in [4], the “instances of facial nerve palsy” value is recorded as “two”. In addition, the “numbness with paresthesias, patients treated” value in data set [4] was “up to 40%”.
For the molecule `Brc1ccc2[nH]ccc2c1` [Compound 38, 5-bromo-1H-indole], in data set [5], the “adipocyte kill rate / aggressiveness” value is on record as “aggressive adipocyte killer” and the “Adipocyte, averaged ethidium numbers” value was 558. Also, the “toxicity to dermis / dermal fibroblasts” value in data set [6] (Example 2, FIGS. 6-8) was “not nearly as toxic”. For the same molecule, in data set [6], the “Dermis, averaged ethidium numbers” value came out at 148 and the “Dermis, relative kill rate rated against the adipocyte kill rate” value is given as 27%. For the same molecule, the “toxicity to nerve cells” value in [7] (Example 2, FIGS. 6-8) is given as “toxic to nerve cells”. For the same molecule, in [7], the “Nerve, averaged ethidium numbers” value amounted to 551 and the “Nerve, relative kill rate rated against the adipocyte kill rate” value was 99%. Besides, in [8], the “Muscle, averaged ethidium numbers” value is recorded as 362 and the “Muscle, relative kill rate rated against the adipocyte kill rate” value is 65%. Moreover, in data set [9], the “Endothelial, averaged ethidium numbers” value is on record as 289 and the “Endothelial, relative kill rate rated against the adipocyte kill rate” value is listed as 50%. Besides, the “tissue specificity / tissue preference” value in data set [1] is “moderate preference”. The “histology finding / mechanism of action” value in data set [2] (at 4 hours) was “primarily cytolysis”.
`O=C(O)Cc1c[nH]c2ccc(Br)cc12` [Compound 41, 2-(5-bromo-1H-indol-3-yl) acetic acid]: in [5], the “adipocyte kill rate / aggressiveness” value is recorded as “moderate; also recorded: strong adipocytolytic capability” and the “Adipocyte, averaged ethidium numbers” value was 149. For the same molecule, in data set [6], the “Dermis, averaged ethidium numbers” value worked out at 27 and the “Dermis, relative kill rate rated against the adipocyte kill rate” value is on record as 18%. In addition, in data set [7], the “Nerve, averaged ethidium numbers” value is given as 32 and the “Nerve, relative kill rate rated against the adipocyte kill rate” value stood at 20%. Also, in [8], the “Muscle, averaged ethidium numbers” value is 40 and the “Muscle, relative kill rate rated against the adipocyte kill rate” value is 27%. Further, in [9], the “Endothelial, averaged ethidium numbers” value was 44 and the “Endothelial, relative kill rate rated against the adipocyte kill rate” value is reported as 30%. In data set [1], the “tissue specificity / tissue preference” value is on record as “most strongly tissue preferential; also recorded: high tissue preference index”. Moreover, the “histology finding / mechanism of action” value in [2] (at 12 hours) is listed as “Pyroptotic mechanism”.
